# Assays:
# Format in all cases: functional
# Conditions in all cases: read-out: Activity
# SF-268 = experiment: Cytotoxicity against human SF-268 cells assessed as cell viability at 10 uM incubated for 48 hrs by sulforhodamine B assay relative to control
# M14 = experiment: Cytotoxicity against human M14 cells assessed as cell viability at 10 uM incubated for 48 hrs by sulforhodamine B assay relative to control
# 786-0 = experiment: Cytotoxicity against human 786-0 cells assessed as cell viability at 10 uM incubated for 48 hrs by sulforhodamine B assay relative to control
# RPMI-8226 = experiment: Cytotoxicity against human RPMI-8226 cells assessed as cell viability at 10 uM incubated for 48 hrs by sulforhodamine B assay relative to control
# EKVX = experiment: Cytotoxicity against human EKVX cells assessed as cell viability at 10 uM incubated for 48 hrs by sulforhodamine B assay relative to control
# TK-10 = experiment: Cytotoxicity against human TK-10 cells assessed as cell viability at 10 uM incubated for 48 hrs by sulforhodamine B assay relative to control
# SK-MEL-5 = experiment: Cytotoxicity against human SK-MEL-5 cells assessed as cell viability at 10 uM incubated for 48 hrs by sulforhodamine B assay relative to control
# NCI-H322M = experiment: Cytotoxicity against human NCI-H322M cells assessed as cell viability at 10 uM incubated for 48 hrs by sulforhodamine B assay relative to control
# SNB-75 = experiment: Cytotoxicity against human SNB-75 cells assessed as cell viability at 10 uM incubated for 48 hrs by sulforhodamine B assay relative to control
# SNB-19 = experiment: Cytotoxicity against human SNB-19 cells assessed as cell viability at 10 uM incubated for 48 hrs by sulforhodamine B assay relative to control
# MDA-MB-435 = experiment: Cytotoxicity against human MDA-MB-435 cells assessed as cell viability at 10 uM incubated for 48 hrs by sulforhodamine B assay relative to control
# SF-295 = experiment: Cytotoxicity against human SF-295 cells assessed as cell viability at 10 uM incubated for 48 hrs by sulforhodamine B assay relative to control
# HCT-116 = experiment: Cytotoxicity against human HCT-116 cells assessed as cell viability at 10 uM incubated for 48 hrs by sulforhodamine B assay relative to control
# K562 = experiment: Cytotoxicity against human K562 cells assessed as cell viability at 10 uM incubated for 48 hrs by sulforhodamine B assay relative to control
# KM12 = experiment: Cytotoxicity against human KM12 cells assessed as cell viability at 10 uM incubated for 48 hrs by sulforhodamine B assay relative to control
# SK-OV-3 = experiment: Cytotoxicity against human SK-OV-3 cells assessed as cell viability at 10 uM incubated for 48 hrs by sulforhodamine B assay relative to control
# NCI-H522 = experiment: Cytotoxicity against human NCI-H522 cells assessed as cell viability at 10 uM incubated for 48 hrs by sulforhodamine B assay relative to control
# OVCAR-8 = experiment: Cytotoxicity against human OVCAR-8 cells assessed as cell viability at 10 uM incubated for 48 hrs by sulforhodamine B assay relative to control
# CAKI-1 = experiment: Cytotoxicity against human CAKI-1 cells assessed as cell viability at 10 uM incubated for 48 hrs by sulforhodamine B assay relative to control
# HOP-92 = experiment: Cytotoxicity against human HOP-92 cells assessed as cell viability at 10 uM incubated for 48 hrs by sulforhodamine B assay relative to control
# NCI/ADR-RES = experiment: Cytotoxicity against human NCI/ADR-RES cells assessed as cell viability at 10 uM incubated for 48 hrs by sulforhodamine B assay relative to control
# BT-549 = experiment: Cytotoxicity against human BT-549 cells assessed as cell viability at 10 uM incubated for 48 hrs by sulforhodamine B assay relative to control
# OVCAR-3 = experiment: Cytotoxicity against human OVCAR-3 cells assessed as cell viability at 10 uM incubated for 48 hrs by sulforhodamine B assay relative to control
# MOLT-4 = experiment: Cytotoxicity against human MOLT-4 cells assessed as cell viability at 10 uM incubated for 48 hrs by sulforhodamine B assay relative to control
# ACHN = experiment: Cytotoxicity against human ACHN cells assessed as cell viability at 10 uM incubated for 48 hrs by sulforhodamine B assay relative to control
# IGROV-1 = experiment: Cytotoxicity against human IGROV-1 cells assessed as cell viability at 10 uM incubated for 48 hrs by sulforhodamine B assay relative to control
# OVCAR-4 = experiment: Cytotoxicity against human OVCAR-4 cells assessed as cell viability at 10 uM incubated for 48 hrs by sulforhodamine B assay relative to control
# HOP-62 = experiment: Cytotoxicity against human HOP-62 cells assessed as cell viability at 10 uM incubated for 48 hrs by sulforhodamine B assay relative to control
# HCC 2998 = experiment: Cytotoxicity against human HCC 2998 cells assessed as cell viability at 10 uM incubated for 48 hrs by sulforhodamine B assay relative to control
# NCI-H23 = experiment: Cytotoxicity against human NCI-H23 cells assessed as cell viability at 10 uM incubated for 48 hrs by sulforhodamine B assay relative to control
# PC-3 = experiment: Cytotoxicity against human PC-3 cells assessed as cell viability at 10 uM incubated for 48 hrs by sulforhodamine B assay relative to control
# SW-620 = experiment: Cytotoxicity against human SW-620 cells assessed as cell viability at 10 uM incubated for 48 hrs by sulforhodamine B assay relative to control
# U-251 = experiment: Cytotoxicity against human U-251 cells assessed as cell viability at 10 uM incubated for 48 hrs by sulforhodamine B assay relative to control
# CCRF-CEM = experiment: Cytotoxicity against human CCRF-CEM cells assessed as cell viability at 10 uM incubated for 48 hrs by sulforhodamine B assay relative to control
# UACC-257 = experiment: Cytotoxicity against human UACC-257 cells assessed as cell viability at 10 uM incubated for 48 hrs by sulforhodamine B assay relative to control
# UACC-62 = experiment: Cytotoxicity against human UACC-62 cells assessed as cell viability at 10 uM incubated for 48 hrs by sulforhodamine B assay relative to control
# OVCAR-5 = experiment: Cytotoxicity against human OVCAR-5 cells assessed as cell viability at 10 uM incubated for 48 hrs by sulforhodamine B assay relative to control
# Malme-3M = experiment: Cytotoxicity against human Malme-3M cells assessed as cell viability at 10 uM incubated for 48 hrs by sulforhodamine B assay relative to control
# UO-31 = experiment: Cytotoxicity against human UO-31 cells assessed as cell viability at 10 uM incubated for 48 hrs by sulforhodamine B assay relative to control
# COLO 205 = experiment: Cytotoxicity against human COLO 205 cells assessed as cell viability at 10 uM incubated for 48 hrs by sulforhodamine B assay relative to control
# SN12C = experiment: Cytotoxicity against human SN12C cells assessed as cell viability at 10 uM incubated for 48 hrs by sulforhodamine B assay relative to control
structure (smiles),measurement,setting,value
O=C(NCCNc1nccc(-c2c(-c3cccc(F)c3)nc3sccn23)n1)c1c(F)cccc1F,viability at 10 µM,SF-268,54.4%
same,viability at 10 µM,M14,29.3%
same,viability at 10 µM,786-0,44.2%
same,viability at 10 µM,RPMI-8226,41%
same,viability at 10 µM,EKVX,61.2%
same,viability at 10 µM,TK-10,66.6%
same,viability at 10 µM,SK-MEL-5,17.1%
same,viability at 10 µM,NCI-H322M,57.5%
same,viability at 10 µM,SNB-75,59.5%
same,viability at 10 µM,SNB-19,55.2%
same,viability at 10 µM,MDA-MB-435,17.4%
same,viability at 10 µM,SF-295,66.8%
same,viability at 10 µM,HCT-116,24.9%
same,viability at 10 µM,K562,40.2%
same,viability at 10 µM,KM12,47.7%
same,viability at 10 µM,SK-OV-3,64.1%
same,viability at 10 µM,NCI-H522,42.8%
same,viability at 10 µM,OVCAR-8,44.2%
same,viability at 10 µM,CAKI-1,34.5%
same,viability at 10 µM,HOP-92,66.2%
same,viability at 10 µM,NCI/ADR-RES,56.9%
same,viability at 10 µM,BT-549,56%
same,viability at 10 µM,OVCAR-3,56.8%
same,viability at 10 µM,MOLT-4,35.9%
same,viability at 10 µM,ACHN,26%
same,viability at 10 µM,IGROV-1,12.1%
same,viability at 10 µM,OVCAR-4,60.9%
same,viability at 10 µM,HOP-62,63.8%
same,viability at 10 µM,HCC 2998,70.4%
same,viability at 10 µM,NCI-H23,61.9%
same,viability at 10 µM,PC-3,57%
same,viability at 10 µM,SW-620,47.3%
same,viability at 10 µM,U-251,49.7%
same,viability at 10 µM,CCRF-CEM,42.8%
same,viability at 10 µM,UACC-257,54.7%
same,viability at 10 µM,UACC-62,10.3%
same,viability at 10 µM,OVCAR-5,72.7%
same,viability at 10 µM,Malme-3M,31.6%
same,viability at 10 µM,UO-31,20.8%
same,viability at 10 µM,COLO 205,19.2%
same,viability at 10 µM,SN12C,45%
O=S(=O)(NCCNc1nccc(-c2c(-c3cccc(F)c3)nc3sccn23)n1)c1ccc(F)cc1,viability at 10 µM,SF-268,53.8%
same,viability at 10 µM,M14,67.8%
same,viability at 10 µM,786-0,58.7%
same,viability at 10 µM,RPMI-8226,63.4%
same,viability at 10 µM,EKVX,62.7%
same,viability at 10 µM,TK-10,80.4%
same,viability at 10 µM,SK-MEL-5,35.4%
same,viability at 10 µM,NCI-H322M,64%
same,viability at 10 µM,SNB-75,67.7%
same,viability at 10 µM,SNB-19,67.4%
same,viability at 10 µM,MDA-MB-435,31.5%
same,viability at 10 µM,SF-295,67.5%
same,viability at 10 µM,HCT-116,40%
same,viability at 10 µM,K562,38.8%
same,viability at 10 µM,KM12,40.1%
same,viability at 10 µM,SK-OV-3,79.9%
same,viability at 10 µM,NCI-H522,67%
same,viability at 10 µM,OVCAR-8,47.3%
same,viability at 10 µM,CAKI-1,41.3%
same,viability at 10 µM,HOP-92,84.8%
same,viability at 10 µM,NCI/ADR-RES,66.7%
same,viability at 10 µM,BT-549,78.6%
same,viability at 10 µM,OVCAR-3,67.2%
same,viability at 10 µM,MOLT-4,41.1%
same,viability at 10 µM,ACHN,35.8%
same,viability at 10 µM,IGROV-1,11.3%
same,viability at 10 µM,OVCAR-4,59.3%
same,viability at 10 µM,HOP-62,80.1%
same,viability at 10 µM,HCC 2998,80.8%
same,viability at 10 µM,NCI-H23,79.3%
same,viability at 10 µM,PC-3,51.4%
same,viability at 10 µM,SW-620,63%
same,viability at 10 µM,U-251,58.4%
same,viability at 10 µM,CCRF-CEM,54.7%
same,viability at 10 µM,UACC-257,79.1%
same,viability at 10 µM,UACC-62,44.4%
same,viability at 10 µM,OVCAR-5,92.5%
same,viability at 10 µM,Malme-3M,81.1%
same,viability at 10 µM,UO-31,23.2%
same,viability at 10 µM,COLO 205,39.5%
same,viability at 10 µM,SN12C,49.2%
